From patent US8546421B1, “Oncogenic-RAS-signal dependent lethal compounds” (The Trustees of Columbia University in the City of New York, priority 2007, dated 2013)
“And” between values parts separate entries of the source, which are not always exact repeats. Equal values may be shown once. Where a name gives a salt, the structure may show the parent alone.

Key:
[1] = test system: BJELR (Foreskin fibroblasts w/ TERT, LT, ST, RAS); assay: Alamar Blue assay, additional cell lines; format: cell-based, human
Excerpt: (§1) The results of this additional testing are summarized in Tables 7-10 (no additional cell lines were identified as sensitive for Compound 3). […] The tumor type, cell line, maximum percentage inhibition, the concentration of compound required to inhibit cell growth by 50%, and RAS mutation (if any) are also summarized.

[2] = test system: Calu-1; assay: Alamar Blue assay, additional cell lines; format: cell-based, human; settings: Calu-1, Non-small cell lung carcinoma, Alamar Blue
Excerpt: as §1

[3] = test system: HT1080; assay: Alamar Blue assay, additional cell lines; format: cell-based, human
Excerpt: as §1

[4] = test system: UO-31; assay: NCI60 anti-cancer screening
[5] = test system: 786-0; assay: NCI60 anti-cancer screening
[6] = test system: CAKI-1; assay: NCI60 anti-cancer screening; settings: Homo sapiens
[7] = test system: RXF393; assay: NCI60 anti-cancer screening
[8] = test system: U973; assay: Alamar Blue assay, additional cell lines; format: cell-based
Excerpt: as §1

[9] = test system: U-2 OS; assay: Alamar Blue assay, additional cell lines; format: cell-based; settings: Osteosarcoma
Excerpt: as §1

[10] = test system: SK-LMS-1; assay: Alamar Blue assay, additional cell lines; format: cell-based; settings: Leimyosarcoma, vulva
Excerpt: as §1

[11] = test system: MES-CA; assay: Alamar Blue assay, additional cell lines; format: cell-based; settings: Uterine sarcoma
Excerpt: as §1

[12] = test system: TC71; assay: Alamar Blue assay, additional cell lines; format: cell-based
Excerpt: as §1

[13] = test system: TC32; assay: Alamar Blue assay, additional cell lines; format: cell-based
Excerpt: as §1

[14] = test system: SK-UT; assay: Alamar Blue assay, additional cell lines; format: cell-based; settings: Uterine, mixed mesodermal tumor
Excerpt: as §1

[15] = test system: SK-ES-1; assay: Alamar Blue assay, additional cell lines; format: cell-based; settings: anaplastic osteosarcoma
Excerpt: as §1

[16] = test system: HeLa; assay: Alamar Blue assay, additional cell lines; format: cell-based; settings: Cervical carcinoma
Excerpt: as §1

[17] = test system: ACHN; assay: NCI60 anti-cancer screening
[18] = test system: K-562; assay: NCI60 anti-cancer screening
[19] = test system: HL-60(TB); assay: cells; settings: Homo sapiens
[20] = test system: HL-60(TB); settings: Leukemia
[21] = test system: BJ cell system (BJ-TERT, BJ-TERT/LT/ST, BJ-TERT/LT/ST/RAS^V12, DRD cells); assay: Alamar blue potency and selectivity in the engineered BJ cell system; settings: for growth inhibitory activity and selectivity in the BJ cell system (in words): alamar blue, structural analogs and hits; for activity of analogs of Compound 27, percent growth inhibition (in words): cell viability assay, SAR of Compound 27
[22] = test system: BJeH, BJeHLT, BJeLR and DRD cells; assay: Cell growth inhibition by stereoisomers of Compound 27; settings: for cell growth inhibition (in words): BJeH, BJeHLT, BJeLR, DRD cells
[23] = test system: cellular iron in BJ-TERT/LT/ST/RAS^V12 cells; assay: Cellular iron level by flow cytometry with Phen Green SK; format: cell-based, human; settings: 24 hours treatment
Procedure: Cells were seeded in 6-well plates (200,000 cells per well) in BJ medium. The next day, the cell monolayer was washed with phosphate buffered saline (“PBS”) twice and stained with 5 μM of Phen Green SK, diacetate (Molecular Probe, cat.#P14313) in PBS by incubating the plate for 15 minutes in a culture incubator. Cells were released with trypsin/EDTA, harvested in 2 mL PBS, and centrifuged at 1,000 rpm for 5 min. The cell pellet was re-suspended in 1 mL of PBS, the cell suspension was transferred to disposable FACS tubes, and the fluorescence profile of the sample was monitored using a FACSCalibur system (BD Biosciences).

[24] = test system: Calu-1 cells expressing shRNAs targeting HRAS, NRAS or KRAS; assay: Drug sensitivity after shRNA knockdown of RAS; format: cell-based, human; settings: alamar blue
Procedure: On day one, 3×10^5 Calu-1 cells or 2×10^5 HT1080 cells were seeded in 10-cm dishes; on day 2, frozen virus stock was thawed at 37° C., hexadimethrine bromide (polybrene) (Sigma, cat.#H9268) was added to the virus solution at a final concentration of 8 μg/mL and growth media from cell culture was replaced with the virus/polybrene mixture. The culture was returned to the tissue culture incubator for 2 hours, with rocking of the dishes every 30 min in order to prevent drying. After 2 h, 10 mL growth medium was added, the culture was incubated for 2 days, and cells stably expressing shRNA were selected by adding puromycin (Sigma, cat.#P9620) at a final concentration of 1.5 μg/mL.
On the day of experiment, assay plates were prepared by seeding 3,000 HT1080, HT1080-pLKO, HT1080-TfR1 KD, Calu-1, Calu-1-pLKO, or Calu-1-509 cells per well in 36 μL of growth media to black, clear bottom 384-well plates. Also, assay plates were prepared by seeding 1,500 shRNA infected HT1080 or Calu-1 cells per well. Cells in assay plates were treated with each lethal compound in a 2-fold dilution series by transferring 4 μL solution from a 10× lethal plate of Erastin, Compound 3, Compound 27, or Compound 36. […] Percent growth inhibition (% GI) was calculated using fluorescence intensity values.

[25] = test system: PARP-1 cleavage in BJ-TERT/LT/ST/RAS^V12 cells; assay: Western blot of PARP-1 cleavage upon compound treatment; format: cell-based, human; settings: Western blot with anti-PARP-1 antibody
Procedure: 2×10^6 BJ-TERT/LT/ST/RAS^V12 cells were seeded in 10 cm dishes and treated with 1 μM staurosporine, 10 μg/mL erastin, 20 μg/mL Compound 3, and 1 μg/mL Compound 27 for 16 h. Both dying cells and live cells in each 10 cm dish were harvested and collected in the same 15 mL tubes by centrifuging cell suspension at 1,000 rpm for 5 min. Cell pellets were washed three times with PBS and cells were lysed in 200 μL of denaturing lysis buffer (50 mM HEPES KOH [pH 7.4], 40 mM NaCl, 2 mM EDTA, 1.5 mM Na3VO4, 50 mM NaF, 10 mM sodium pyrophosphate, 10 mM sodium β-glycerophosphate, 0.5% Triton X-100, and protease inhibitor tablet [Roche, cat.#11836170001]). Protein content was quantified using a Bio-Rad protein assay reagent (Bio-Rad, cat.#500-00006). Equal amounts of protein were resolved on SDS-polyacrylamide gels. The electrophoresed proteins were transblotted onto a PVDF membrane, blocked with 5% milk, and incubated with rabbit primary antibodies specific to: PARP (Santa Cruz, cat.#sc-7150), cleaved caspase-3 (Cell Signaling Technology, cat.#9661) overnight at 4° C. The membrane was then incubated in IRDye 800 goat anti-rabbit antibody (Li-cor Bioscience cat.#926-32211) at 1:3,000 dilutions for 45 min at room temperature. After washing off the unbound antibodies, membranes were scanned using the Odyssey™ Imaging System (Li-cor Bioscience).

In the case of CCOc1ccccc1-n1c(C(C)N2CCN(C(=O)COc3ccc(Cl)cc3)CC2)nc2ccccc2c1=O (stereo not shown) [Erastin, reference compound], the “Maximum Inhibition %” value [1] is reported as 100%, the GI50 ([1]; Homo sapiens) is reported as 6 µM and the “Maximum Inhibition %” value [2] is reported as 100%. For the same molecule, the GI50 ([2]; Homo sapiens) was 6 µM, the “Maximum Inhibition %” value ([3]; Fibrosarcoma) was 98% and the GI50 ([3]; Homo sapiens, HT-1080, Fibrosarcoma) was 2 µM. For the same molecule, the GI50 ([4]; Homo sapiens, UO-31) was 0.373 µM, the CC50 ([4]; Homo sapiens, UO-31, read-out: LC 50%) was greater than 10 µM and the “GI 100%” value ([4]; UO-31, Renal Cancer) was 1.63 µM. The “GI 100%” value ([5]; 786-0, Renal Cancer) was 4.12 µM, the GI50 ([5]; Homo sapiens, 786-0) was 2.03 µM and the CC50 ([5]; Homo sapiens, 786-0, read-out: LC 50%) was 8.36 µM. The GI50 ([6]; CAKI-1) was 2.15 µM, the CC50 ([6]; CAKI-1, read-out: LC 50%) was greater than 10 µM and the GI50 ([7]; Homo sapiens, RXF 393) was 2.16 µM. The CC50 ([7]; Homo sapiens, RXF 393, read-out: LC 50%) was greater than 10 µM, the “GI 100%” value ([7]; RXF393, Renal Cancer) was 7.2 µM and the “Maximum Inhibition %” value ([8]; Acute myelogenous leukemia) was 73%. The GI50 ([8]; U-973, Acute myelogenous leukemia) was 10 µM, the GI50 ([9]; Homo sapiens, U2OS) was 6 µM and the “Maximum Inhibition %” value [9] was 96%. The GI50 ([10]; Homo sapiens) was 6 µM, the “Maximum Inhibition %” value [10] was 100% and the GI50 [11] was 3 µM. For the same molecule, the “Maximum Inhibition %” value [11] was 100%, the “Maximum Inhibition %” value ([12]; Ewing sarcoma) was 92% and the GI50 ([12]; TC-71, Ewing sarcoma) was 10 µM. The GI50 ([13]; Homo sapiens, TC-32, Peripheral neuroepithelioma) was 8 µM, the “Maximum Inhibition %” value ([13]; Peripheral neuroepithelioma) was 88% and the GI50 [14] was 4 µM. For the same molecule, the “Maximum Inhibition %” value [14] was 73%, the “Maximum Inhibition %” value ([15]; Ewing sarcoma) was 98% and the GI50 ([15]; Homo sapiens, SK-ES1, Ewing sarcoma) was 7 µM. For the same molecule, the “Maximum Inhibition %” value [16] was 94%, the GI50 ([16]; Homo sapiens) was 0.6 µM and the GI50 ([17]; Homo sapiens) was 0.979 µM. The CC50 ([17]; Homo sapiens, read-out: LC 50%) was 6.3 µM, the “GI 100%” value ([17]; Renal Cancer) was 2.5 µM and the GI50 ([18]; Homo sapiens, K562) was 3.39 µM. The CC50 ([18]; Homo sapiens, K562, read-out: LC 50%) was greater than 10 µM, the “GI 100%” value ([18]; K-562, Leukemia) was greater than 10 µM and the GI50 ([19]; HL-60) was 2.26 µM. For the same molecule, the CC50 ([19]; HL-60, read-out: LC 50%) was greater than 10 µM and the “GI 100%” value [20] was greater than 10 µM.

COC(=O)C1Cc2c([nH]c3ccccc23)C(C)(C)N1C(=O)CCl (stereo not shown) [Compound 28] was tested, and the “growth inhibitory activity and selectivity in the BJ cell system (in words)” value [21] was “virtually the same activity and selectivity”.

COC(=O)c1ccc([C@@H]2c3[nH]c4ccccc4c3C[C@@H](C(=O)OC)N2C(=O)CCl)cc1 [(1R,3S) Compound 27] was tested, and the “cell growth inhibition (in words)” value [22] was “no appreciable growth inhibition”.

With COC(=O)c1ccc([C@@H]2c3[nH]c4ccccc4c3C[C@H](C(=O)OC)N2C(=O)CCl)cc1 [1R,3R Compound 27] the “cell growth inhibition (in words)” value [22] was “no appreciable growth inhibition”.

With O=C(NN=Cc1c(O)ccc2ccccc12)c1ccncc1 [Compound 311] the “change of cellular iron level (PGSK fluorescence)” value [23] was “induced a peak shift in the fluorescence profile”.

In the case of CC(=O)N(O)CCCCCNC(=O)CCC(=O)N(O)CCCCCNC(=O)CCC(=O)N(O)CCCCCN [DFOM, deferoxamine mesylate], the “change of cellular iron level (PGSK fluorescence)” value [23] is reported as “induced a peak shift in the fluorescence profile”.

COC(=O)c1ccc([C@H]2c3[nH]c4ccccc4c3C[C@H](C(=O)OC)N2C(=O)CCl)cc1 [1S,3R Compound 27] was tested, and the “cell growth inhibition (in words)” value [22] was “strong cell growth inhibition in two cell lines”, the EC50 ([22]; Homo sapiens) was ~0.005 µg/mL and ~10 nM and the “selective lethality (in words)” value ([22]; mutant HRAS BJ tumor cell lines versus isogenic cell lines lacking oncogenic HRAS) was “selective lethality towards BJ tumor cell lines containing mutant HRAS”.

COC(=O)C1Cc2c([nH]c3ccccc23)C(c2ccc(NC(=O)CCCCCNC(=O)CCCCC3SCC4NC(=O)NC43)cc2)N1C(=O)CCl (stereo not shown) [biotinylated analog of Compound 27] was tested, and the “activity of analogs of Compound 27, percent growth inhibition (in words)” value [21] was “not sufficiently active”.

For COC(=O)c1ccc([C@H]2c3[nH]c4ccccc4c3C[C@@H](C(=O)OC)N2C(=O)CCl)cc1 [(1S,3S) Compound 27], the “cell growth inhibition (in words)” value [22] was “no appreciable growth inhibition”.

For COC(=O)C1=C(C)NC2=C(C(=O)CC(c3ccc(Cl)cc3)C2)C1c1ccccc1F (stereo not shown) [Compound 5], the “growth inhibitory activity and selectivity in the BJ cell system (in words)” value [21] was “varied potency and selectivity”.

In the case of C=CC(=O)N1C(C(=O)OC)Cc2c([nH]c3ccccc23)C1c1ccc(C(=O)OC)cc1 (stereo not shown) [acryl analog], the “activity of analogs of Compound 27, percent growth inhibition (in words)” value [21] is reported as “insufficiently active”.

For CN[C@@H]1C[C@H]2O[C@@](C)([C@@H]1OC)n1c3ccccc3c3c4c(c5c6ccccc6n2c5c31)C(=O)NC4 [staurosporine, reference compound], the “sensitivity of Calu-1 cells after RAS shRNA compared with parental cells” value [24] was “loss of sensitivity to staurosporine was not observed” and the “PARP-1 cleavage / type of cell death” value [25] was “showed PARP-1 cleavage”.
